Reference: ChEMBL document CHEMBL5528043, “Development of Potent Mcl-1 Inhibitors: Structural Investigations on Macrocycles Originating from a DNA-Encoded Chemical Library Screen” (J Med Chem, 2024)
≈ marks a conversion by molar mass, not a printed value.

Key:
[1] = molecular target: Induced myeloid leukemia cell differentiation protein Mcl-1 (Homo sapiens, UniProt Q07820); assay: Inhibition of Mcl-1 (172-327) (unknown origin) using BIOTIN-AHXGQVGRQLAIIGDDINR-amide peptide by TR-FRET based BAK peptide displacement assay
NCI-H929 [2] = assay: Cytotoxicity against human NCI-H929 cells assessed as cell viability measured after 72 hrs incubation by CellTiterGlo assay; format: functional, cell-based; conditions: NCI-H929, 72 h
[3] = Kinetic solubility of the compound in pH 7.4 buffer measured after 24 hrs by LC-UV analysis; format: physicochemical; conditions: read-out: Kinetic_solubility
NCI-H929 [4] = assay: Cytotoxicity against human NCI-H929 cells assessed as […] by measuring caspase 3/7 activity measured after 6 hrs by luminescence assay; format: functional, cell-based; conditions: NCI-H929, 6 h

Induced myeloid leukemia cell differentiation protein Mcl-1, sequence (Q07820 whole entry): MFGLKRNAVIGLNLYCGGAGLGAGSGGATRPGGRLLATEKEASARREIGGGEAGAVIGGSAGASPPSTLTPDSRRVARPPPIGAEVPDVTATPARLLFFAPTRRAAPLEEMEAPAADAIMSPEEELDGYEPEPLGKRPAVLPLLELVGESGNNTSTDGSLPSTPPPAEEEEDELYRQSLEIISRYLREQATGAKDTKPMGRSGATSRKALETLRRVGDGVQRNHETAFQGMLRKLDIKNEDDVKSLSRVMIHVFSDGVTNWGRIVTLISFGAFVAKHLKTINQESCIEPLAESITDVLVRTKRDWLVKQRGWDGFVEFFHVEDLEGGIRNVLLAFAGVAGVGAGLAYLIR

Row | Compound | IC50 [1] [nM] | IC50 (NCI-H929 [2]) [nM] | solubility kinetic at 24 h [3] [µM] | IC50 (NCI-H929 [4]) [nM]
1 | CCOc1cccc2c1OCC(=O)N[C@H]1CC[C@H](CC1)CC(=O)N[C@@H](CC(C)C)C(=O)N[C@H](Cc1ccccc1)C(=O)NCCc1ccc(cc1)OC2 | 90 | – | – | –
2 | CCOc1cccc2c1OCC(=O)N[C@H]1CC[C@H](CC1)CC(=O)N[C@@H](c1ccccc1)C(=O)N(Cc1ccccc1)CC(=O)NCCc1ccc(cc1)OC2 | 234 | – | – | –
3 | CCOc1cccc2c1OCC(=O)N[C@H]1CC[C@H](CC1)CC(=O)N[C@@H](c1ccccc1)C(=O)N[C@H](CC1CCCCC1)C(=O)N[C@H](C(=O)NC)Cc1ccc(cc1)OC2 | 64 | – | – | –
4 | CCOc1cc(C#Cc2ccc(OC)cc2)cc2c1OCC(=O)N[C@H]1CC[C@H](CC1)CC(=O)N[C@@H](c1ccccc1)C(=O)N[C@H](Cc1ccccc1)C(=O)NCCc1ccc(cc1)OC2 | 8000 | 1400 | – | –
5 | CCOc1cccc2c1OCC(=O)N[C@H]1CC[C@H](CC1)CC(=O)N[C@@H](c1ccccc1)C(=O)N[C@H](CC1CCCCC1)C(=O)NCCc1ccc(cc1)OC2 | 227 | – | – | –
6 | CCOc1cc(Oc2cccc(Cl)c2)cc2c1OCC(=O)N[C@H]1CC[C@H](CC1)CC(=O)N[C@@H](c1ccccc1)C(=O)N[C@H](Cc1ccccc1)C(=O)NCCc1ccc(cc1)OC2 | 22000 | 330 | – | –
7 | CCOc1cccc2c1OCC(=O)N[C@H]1CC[C@H](CC1)CC(=O)N[C@@H]([C@@H](C)OC)C(=O)N[C@H](Cc1ccccc1)C(=O)NCCc1ccc(cc1)OC2 | 678 | – | 25 (≈ 18.2 µg/mL) | –
8 | CCOc1cccc2c1OCC(=O)N[C@H]1CC[C@H](CC1)CC(=O)N[C@@H](c1ccccc1)C(=O)N[C@H](Cc1ccccc1)C(=O)N(C)CCc1ccc(cc1)OC2 (mixture of isomers) | 21800 | – | – | –
9 | CCOc1cccc2c1OCC(=O)N[C@H]1CC[C@H](CC1)CC(=O)N[C@@H](Cc1c[nH]cn1)C(=O)N[C@H](Cc1ccccc1)C(=O)NCCc1ccc(cc1)OC2 | 7350 | – | 69 (≈ 51.8 µg/mL) | –
10 | CCOc1cc(-c2ccc(F)c(OC)c2)cc2c1OCC(=O)N[C@H]1CC[C@H](CC1)CC(=O)N[C@@H](c1ccccc1)C(=O)N[C@H](Cc1ccccc1)C(=O)NCCc1ccc(cc1)OC2 | 50000 | 2100 | – | –
11 | CCOc1cccc2c1OCC(=O)N[C@H]1CC[C@H](CC1)CC(=O)N[C@@H](C1CCCCC1)C(=O)N[C@H](CC1CCCCC1)C(=O)N[C@H](C(=O)NC)Cc1ccc(cc1)OC2 | 179 | – | – | –
12 | CCOc1cc(Oc2cccc(C(F)(F)F)c2)cc2c1OCC(=O)N[C@H]1CC[C@H](CC1)CC(=O)N[C@@H](c1ccccc1)C(=O)N[C@H](Cc1ccccc1)C(=O)NCCc1ccc(cc1)OC2 | 12000 | 180 | – | –
13 | O=C1C[C@H]2CC[C@H](CC2)NC(=O)COc2c(Cl)cccc2COc2ccc(cc2)CCNC(=O)[C@@H](Cc2ccccc2)NC(=O)[C@H](c2ccccc2)N1 | 78 | – | – | –
14 | CCOc1cc(-c2ccc(C(F)(F)F)cc2)cc2c1OCC(=O)N[C@H]1CC[C@H](CC1)CC(=O)N[C@@H](c1ccccc1)C(=O)N[C@H](Cc1ccccc1)C(=O)NCCc1ccc(cc1)OC2 | 39000 | 7100 | – | –
15 | CCOc1cccc2c1OCC(=O)N[C@H]1CC[C@H](CC1)CC(=O)N[C@@H](Cc1ccc(O)cc1)C(=O)N[C@H](Cc1ccccc1)C(=O)NCCc1ccc(cc1)OC2 | 1370 | – | 37 (≈ 28.7 µg/mL) | –
16 | CCOc1cccc2c1OCC(=O)N[C@H]1CC[C@H](CC1)CC(=O)N[C@@H](c1ccnc(OC)c1)C(=O)N[C@H](Cc1ccccc1)C(=O)NCCc1ccc(cc1)OC2 | 34 | – | 3 (≈ 2.33 µg/mL) | –
17 | CCOc1cc(Oc2cccc3ccccc23)cc2c1OCC(=O)N[C@H]1CC[C@H](CC1)CC(=O)N[C@@H](c1ccccc1)C(=O)N[C@H](Cc1ccccc1)C(=O)NCCc1ccc(cc1)OC2 | 12000 | 170 | – | –
18 | CCOc1cccc2c1OCC(=O)N[C@H]1CC[C@H](CC1)CC(=O)N(c1ccccc1)CC(=O)N[C@H](Cc1ccccc1)C(=O)NCCc1ccc(cc1)OC2 | > 30000 | – | – | –
19 | CCOc1cccc2c1OCC(=O)N[C@H]1CC[C@H](CC1)CC(=O)N[C@@H](Cc1c[nH]c3ccccc13)C(=O)N[C@H](Cc1ccccc1)C(=O)NCCc1ccc(cc1)OC2 | 1440 | – | 1 (≈ 0.8 µg/mL) | –
20 | CCOc1cccc2c1OCC(=O)N[C@H]1CC[C@H](CC1)CC(=O)N[C@@](C)(c1ccccc1)C(=O)N[C@H](Cc1ccccc1)C(=O)NCCc1ccc(cc1)OC2 | 1430 | – | 4 (≈ 3.04 µg/mL) | –
21 | CCOc1cc(Oc2cc(C)c(Cl)c(C)c2)cc2c1OCC(=O)N[C@H]1CC[C@H](CC1)CC(=O)N[C@@H](CCS(C)(=O)=O)C(=O)N[C@H](Cc1ccncc1)C(=O)NCCc1ccc(cc1)OC2 | 5300 | – | < 2 | > 10000
22 | CCOc1cccc2c1OC(C)(C)C(=O)N[C@H]1CC[C@H](CC1)CC(=O)N[C@@H](c1ccccc1)C(=O)N[C@H](Cc1ccccc1)C(=O)NCCc1ccc(cc1)OC2 | 59 | – | – | –
23 | CCOc1cc(C#Cc2cccc(F)c2)cc2c1OCC(=O)N[C@H]1CC[C@H](CC1)CC(=O)N[C@@H](c1ccccc1)C(=O)N[C@H](Cc1ccccc1)C(=O)NCCc1ccc(cc1)OC2 | 7300 | 2200 | – | –

Row | Compound | IC50 [1] [nM] | IC50 (NCI-H929 [2]) [nM] | solubility kinetic at 24 h [3] [µM] | IC50 (NCI-H929 [4]) [nM]
24 | CCOc1cccc2c1OCC(=O)N[C@H]1CC[C@H](CC1)CC(=O)N[C@@H](CC1CCCCC1)C(=O)N[C@H](CC1CCCCC1)C(=O)N[C@H](C(=O)NC)Cc1ccc(cc1)OC2 | 271 | – | – | –
25 | COc1cccc2c1OCC(=O)N[C@H]1CC[C@H](CC1)CC(=O)N[C@@H](c1ccccc1)C(=O)N[C@H](Cc1ccccc1)C(=O)NCCc1ccc(cc1)OC2 | 174 | – | – | –
26 | CCOc1cccc2c1OCC(=O)N[C@H]1CC[C@H](CC1)CC(=O)N[C@H](c1ccccc1)C(=O)N[C@H](Cc1ccccc1)C(=O)NCCc1ccc(cc1)OC2 | 7100 | – | – | –
27 | CCOc1cccc2c1OC(C)(C)C(=O)N[C@H]1CC[C@H](CC1)CC(=O)N[C@@H](c1ccccc1)C(=O)N[C@H](CC1CCCCC1)C(=O)NCCc1ccc(cc1)OC2 | 124 | – | – | –
28 | CCOc1cccc2c1OCC(=O)N[C@H]1CC[C@H](CC1)CC(=O)N(c1ccccc1)CC(=O)N(Cc1ccccc1)CC(=O)NCCc1ccc(cc1)OC2 | > 30000 | – | – | –
29 | CCOc1cccc2c1OCC(=O)N[C@H]1CC[C@H](CC1)CC(=O)N[C@@H](CCSC)C(=O)N[C@H](Cc1ccccc1)C(=O)NCCc1ccc(cc1)OC2 | 212 | – | 9 (≈ 6.7 µg/mL) | –
30 | CCOc1cc(Oc2cc(C)c(Cl)c(C)c2)cc2c1OCC(=O)N[C@H]1CC[C@H](CC1)CC(=O)N[C@@H](c1ccccc1)C(=O)N[C@H](Cc1ccccc1)C(=O)NCCc1ccc(cc1)NC2 | 5300 | – | < 2 | 57
31 | CCOc1cc(-c2cc(C)cc(C)c2)cc2c1OCC(=O)N[C@H]1CC[C@H](CC1)CC(=O)N[C@@H](c1ccccc1)C(=O)N[C@H](Cc1ccccc1)C(=O)NCCc1ccc(cc1)OC2 | 15000 | > 10000 | – | –
32 | CCOc1cccc2c1OCC(=O)N[C@H]1CC[C@H](CC1)CC(=O)N[C@@H](CC(C)C)C(=O)N[C@H](CC1CCCCC1)C(=O)N[C@H](C(=O)NC)Cc1ccc(cc1)OC2 | 98 | – | – | –
33 | CCOc1cccc2c1OCC(=O)N[C@H]1CC[C@H](CC1)CC(=O)N(C)[C@@H](c1ccccc1)C(=O)N[C@H](Cc1ccccc1)C(=O)NCCc1ccc(cc1)OC2 | > 30000 | – | – | –
34 | CCOc1cccc2c1OCC(=O)N[C@H]1CC[C@H](CC1)CC(=O)N[C@@H](C(C)C)C(=O)N[C@H](Cc1ccccc1)C(=O)N[C@H](C(=O)NC)Cc1ccc(cc1)OC2 | 298 | – | – | –
35 | CC(C)C[C@@H]1NC(=O)C[C@H]2CC[C@H](CC2)NC(=O)COc2c(Cl)cccc2COc2ccc(cc2)CCNC(=O)[C@@H](Cc2ccccc2)NC1=O | 253 | – | – | –
36 | CCOc1cc(C#Cc2cc(F)cc(F)c2)cc2c1OCC(=O)N[C@H]1CC[C@H](CC1)CC(=O)N[C@@H](c1ccccc1)C(=O)N[C@H](Cc1ccccc1)C(=O)NCCc1ccc(cc1)OC2 | 5600 | 3300 | – | –
37 | CCOc1cccc2c1OC(C)(C)C(=O)N[C@H]1CC[C@H](CC1)CC(=O)N[C@@H](C(C)C)C(=O)N[C@H](Cc1ccccc1)C(=O)NCCc1ccc(cc1)OC2 | 137 | – | – | –
38 | CCOc1cc(-c2ccc(F)c(C)c2)cc2c1OCC(=O)N[C@H]1CC[C@H](CC1)CC(=O)N[C@@H](c1ccccc1)C(=O)N[C@H](Cc1ccccc1)C(=O)NCCc1ccc(cc1)OC2 | 54000 | 2900 | – | –
39 | CCOc1cccc2c1OCC(=O)N[C@H]1CC[C@H](CC1)CC(=O)N[C@@H](CCS(C)(=O)=O)C(=O)N[C@H](Cc1ccccc1)C(=O)NCCc1ccc(cc1)OC2 | 80 | – | 5 (≈ 3.88 µg/mL) | –
40 | CCOc1cc(Oc2cc(C)cc(C)c2)cc2c1OCC(=O)N[C@H]1CC[C@H](CC1)CC(=O)N[C@@H](c1ccccc1)C(=O)N[C@H](Cc1ccccc1)C(=O)NCCc1ccc(cc1)NC2 | 9100 | – | < 2 | 94
41 | CCOc1cccc2c1OCC(=O)N[C@H]1CC[C@H](CC1)CC(=O)N[C@@H](c1cccnc1)C(=O)N[C@H](Cc1ccccc1)C(=O)NCCc1ccc(cc1)OC2 | 43 | – | 6 (≈ 4.49 µg/mL) | –
42 | CCOc1cc(Oc2cc(C)c(Cl)c(C)c2)cc2c1OCC(=O)N[C@H]1CC[C@H](CC1)CC(=O)N[C@@H]([C@@H](C)OC)C(=O)N[C@H](Cc1ccncc1)C(=O)NCCc1ccc(cc1)OC2 | 9400 | – | < 2 | 1400
43 | CCOc1cccc2c1OCC(=O)N[C@H]1CC[C@H](CC1)CC(=O)N[C@@H](c1ccccc1)C(=O)N(C)[C@H](Cc1ccccc1)C(=O)NCCc1ccc(cc1)OC2 | 382 | – | – | –
44 | CCOc1cc(C#Cc2ccc(C(C)(C)C)cc2)cc2c1OCC(=O)N[C@H]1CC[C@H](CC1)CC(=O)N[C@@H](c1ccccc1)C(=O)N[C@H](Cc1ccccc1)C(=O)NCCc1ccc(cc1)OC2 | 1800 | 9900 | – | –
45 | CCOc1cc(C#Cc2cc(C)cc(C)c2)cc2c1OCC(=O)N[C@H]1CC[C@H](CC1)CC(=O)N[C@@H](c1ccccc1)C(=O)N[C@H](Cc1ccccc1)C(=O)NCCc1ccc(cc1)OC2 | 14000 | 3400 | – | –
46 | CCOc1cccc2c1OCC(=O)N[C@H]1CC[C@H](CC1)CC(=O)N[C@@H](CC1CCCCC1)C(=O)N[C@H](Cc1ccccc1)C(=O)N[C@H](C(=O)NC)Cc1ccc(cc1)OC2 | 101 | – | – | –
